Experimental findings from PMC6627469 (Journal of Medicinal Chemistry, 2019) are described below.

“Also recorded” adds a separate entry of the source.

In experiment [1] the test system is Influenza A virus WU95 (containing a H3 protein of a human H3N2 virus). In kind it is binding.
In experiment [2] the test system is H3-containg WU95 virus. Briefly: Hemagglutination inhibition. It is filed as cell-based, Influenza A virus. To be noted: relative to the potency of 8, corrected for valency.
Experiment [3] deals with IAV WU95. In kind it is cell-based, Influenza A virus.

Regarding `C#CCO[C@@H]1O[C@H](CO)[C@@H](O[C@@H]2O[C@H](CO[C@]3(C(=O)O)C[C@H](O)[C@@H](NC(C)=O)[C@H]([C@H](O)[C@H](O)CO)O3)[C@H](O)[C@H](O)[C@H]2O)[C@H](O)[C@H]1NC(C)=O` [Compound 7], in experiment [1], the “rel pot. (BLI)” value is listed as 1 (1) and the “rel pot. per sugar (BLI)” value was 1 (1).
As to `CC(=O)N[C@H]1[C@H]([C@H](O)[C@H](O)CO)O[C@@](OC[C@H]2O[C@@H](O[C@H]3[C@H](O)[C@@H](O)[C@H](OCc4cn(CCCC(=O)Nc5cccc(-c6cc(-c7cccc(NC(=O)CCCn8cc(CO[C@@H]9O[C@H](CO)[C@@H](O[C@@H]%10O[C@H](CO[C@]%11(C(=O)O)C[C@H](O)[C@@H](NC(C)=O)[C@H]([C@H](O)[C@H](O)CO)O%11)[C@H](O)[C@H](O)[C@H]%10O)[C@H](O)[C@H]9O)nn8)c7)cc(-c7cccc(NC(=O)CCCn8cc(CO[C@@H]9O[C@H](CO)[C@@H](O[C@@H]%10O[C@H](CO[C@]%11(C(=O)O)C[C@H](O)[C@@H](NC(C)=O)[C@H]([C@H](O)[C@H](O)CO)O%11)[C@H](O)[C@H](O)[C@H]%10O)[C@H](O)[C@H]9O)nn8)c7)c6)c5)nn4)O[C@@H]3CO)[C@H](O)[C@@H](O)[C@H]2O)(C(=O)O)C[C@@H]1O` [Compound 10], in experiment [1], the “rel pot. (BLI)” value is reported as 20 (7) and the “rel pot. per sugar (BLI)” value was 20 (7). In addition, in experiment [2], the “rel pot. per sugar (HAI)” value turned out to be 2.
As to `CC(=O)N[C@H]1[C@H](O[C@H]2[C@@H](O)[C@@H](CO)O[C@@H](O[C@H]3[C@H](O)[C@@H](O)[C@H](n4cc(-c5ccc(-c6cn(CCCC(=O)Nc7cccc(-c8cc(-c9cccc(NC(=O)CCCn%10cc(-c%11ccc(-c%12cn([C@@H]%13O[C@H](CO)[C@@H](O[C@@H]%14O[C@H](CO)[C@H](O)[C@H](O[C@@H]%15O[C@H](CO)[C@@H](O[C@@H]%16O[C@H](CO)[C@H](O)[C@H](O)[C@H]%16O)[C@H](O)[C@H]%15NC(C)=O)[C@H]%14O)[C@H](O)[C@H]%13O)nn%12)cc%11)nn%10)c9)cc(-c9cccc(NC(=O)CCCn%10cc(-c%11ccc(-c%12cn([C@@H]%13O[C@H](CO)[C@@H](O[C@@H]%14O[C@H](CO)[C@H](O)[C@H](O[C@@H]%15O[C@H](CO)[C@@H](O[C@@H]%16O[C@H](CO)[C@H](O)[C@H](O)[C@H]%16O)[C@H](O)[C@H]%15NC(C)=O)[C@H]%14O)[C@H](O)[C@H]%13O)nn%12)cc%11)nn%10)c9)c8)c7)nn6)cc5)nn4)O[C@@H]3CO)[C@@H]2O)O[C@H](CO)[C@@H](O[C@@H]2O[C@H](CO)[C@H](O)[C@H](O)[C@H]2O)[C@@H]1O` [Compound 13], the “IC50 BLI” value in experiment [1] is on record as “did not yield any detectable inhibition in the assay up to the 20 μM; also recorded: no inhib at 20 μM”.
As for `CC(=O)N[C@H]1[C@H]([C@H](O)[C@H](O)CO)O[C@@](OC[C@H]2O[C@@H](O[C@H]3[C@H](O)[C@@H](O)[C@H](OCc4cn([C@@H]5O[C@H](CO)[C@@H](n6cc(-c7ccc(-c8cn([C@H]9[C@H](O)[C@@H](O)[C@H](n%10cc(CO[C@@H]%11O[C@H](CO)[C@@H](O[C@@H]%12O[C@H](CO[C@]%13(C(=O)O)C[C@H](O)[C@@H](NC(C)=O)[C@H]([C@H](O)[C@H](O)CO)O%13)[C@H](O)[C@H](O)[C@H]%12O)[C@H](O)[C@H]%11O)nn%10)O[C@@H]9CO)nn8)cc7)nn6)[C@H](O)[C@H]5O)nn4)O[C@@H]3CO)[C@H](O)[C@@H](O)[C@H]2O)(C(=O)O)C[C@@H]1O` [Compound 17], in experiment [1], the “rel pot. (BLI)” value was 23 (12) and the “rel pot. per sugar (BLI)” value was 23 (12).
As for `CCC(CC)O[C@@H]1C=C(C(=O)O)C[C@H](N)[C@H]1NC(C)=O` [oseltamivir carboxylate], the “effect on infection, single agent” value in experiment [3] was “little effect”.
